Strand notation (5' to 3'): a small letter for the sugar, then the base; units joined by * are phosphorothioate-linked, units joined directly phosphodiester-linked; [ ] holds rarer units or linkages, { } end groups; capitals alone tell only the bases. e = 2'-O-(2-methoxyethyl) (MOE); [5mC] = 5-methylcytosine; d = 2'-deoxy (DNA)
Columns and labels:
human PKK mRNA [1] = test: Antisense inhibition of human PKK mRNA in HepaRG cells, 5,000 nM (Example 2); format: cell-based
Outline: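 qRT-PCR (RTS3454) read-out, RIBOGREEN-normalized; % inhibition vs untreated cells. HepaRG, 20,000 cells/well, electroporation, 5,000 nM ASO, ~24 h.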

human PKK mRNA [2] = test: Dose-dependent antisense inhibition of human PKK in HepaRG cells, 0.19-5.00 uM (Example 5); format: cell-based; conditions: HepaRG cells; for percent inhibition of PKK mRNA, 0.19 μM: 0.19 μM antisense oligonucleotide; for percent inhibition of PKK mRNA, 0.56 μM: 0.56 μM antisense oligonucleotide; for percent inhibition of PKK mRNA, 1.67 μM: 1.67 μM antisense oligonucleotide; for percent inhibition of PKK mRNA, 5.00 μM: 5.00 μM antisense oligonucleotide
Outline: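 PKK mRNA knockdown was measured by real-time PCR (primer probe set RTS3454) about 16 h after electroporating 20,000 HepaRG cells per well with oligonucleotide at four doses from 0.19 to 5.00 μM. Levels were adjusted to RIBOGREEN-measured total RNA, and IC50 values were calculated.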

[3] = electroporation, approximately 16 hours, Table 36
[4] = 4 point dose response, Table 36
[5] = electroporation, approximately 16 hours, Table 40
[6] = electroporation, approximately 16 hours, Table 37
[7] = electroporation, approximately 16 hours, Table 35
[8] = 4 point dose response, Table 35
[9] = Table 13, human PKK mRNA in HepaRG cells, 5-10-5 gapmers

For “546247 (e[5mC]*e[5mC]*eA*eA*eA*dG*dT*d[5mC]*dA*dA*d[5mC]*dT*d[5mC]*d[5mC]*d[5mC]*eG*eG*eG*eT*eA; antisense) [compound 546247]”, the “% inhibition” value (human PKK mRNA [1]; Table 7, HepaRG cells, electroporation with 5,000 nM antisense oligonucleotide, approx. 24 hours, PKK mRNA by RT-PCR (RTS3454), relative to untreated control cells) was 90%, the “percent inhibition of PKK at 0.19 μM” value (human PKK mRNA [2]; [3]) was 0% and the “percent inhibition of PKK at 0.56 μM” value (human PKK mRNA [2]; [3]) was 29%. The “percent inhibition of PKK at 1.67 μM” value (human PKK mRNA [2]; [3]) was 71%, the “percent inhibition of PKK at 5.00 μM” value (human PKK mRNA [2]; [3]) was 88% and the IC50 (human PKK mRNA [2]; [4]) was 1.1 µM.

For “547520 (antisense eT*e[5mC]*eA*eG*e[5mC]*d[5mC]*dA*dG*dA*d[5mC]*dA*dT*dT*dG*dT*e[5mC]*e[5mC]*eT*e[5mC]*eA) [compound 547520]”, the “% inhibition” value (human PKK mRNA [1]; HepaRG cells, electroporation, 5,000 nM antisense oligonucleotide, approx. 24 hours, primer probe set RTS3454, relative to untreated control cells, Table 11) was 76%, the “percent inhibition of PKK at 0.19 μM” value (human PKK mRNA [2]; [5]) was 0% and the “percent inhibition of PKK at 0.56 μM” value (human PKK mRNA [2]; [5]) was 25%. The “percent inhibition of PKK at 1.67 μM” value (human PKK mRNA [2]; [5]) was 66%, the “percent inhibition of PKK at 5.00 μM” value (human PKK mRNA [2]; [5]) was 64% and the IC50 (human PKK mRNA [2]; 4 point dose response, Table 40) was 1.1 µM.

In the case of “548752 (antisense e[5mC]*eA*e[5mC]*eT*dG*dT*dA*d[5mC]*dT*dA*dG*dT*dT*dT*e[5mC]*e[5mC]*eT*eA) [compound 548752]”, the “% inhibition” value (human PKK mRNA [1]; human PKK mRNA, HepaRG cells, 5,000 nM antisense oligonucleotide, Table 18) is reported as 89%, the “percent inhibition of PKK at 0.19 μM” value (human PKK mRNA [2]; [6]) is reported as 0% and the “percent inhibition of PKK at 0.56 μM” value (human PKK mRNA [2]; [6]) is reported as 0%. For the same substance, the “percent inhibition of PKK at 1.67 μM” value (human PKK mRNA [2]; [6]) was 51%, the “percent inhibition of PKK at 5.00 μM” value (human PKK mRNA [2]; [6]) was 90% and the IC50 (human PKK mRNA [2]; 4 point dose response, Table 37) was 1.9 µM.

With “546889 (eG*eT*e[5mC]*e[5mC]*eT*dA*dT*dG*dT*d[5mC]*dA*d[5mC]*dT*dG*dT*eA*e[5mC]*e[5mC]*eT*eA; antisense) [compound 546889]” the “% inhibition” value (human PKK mRNA [1]; human PKK mRNA, HepaRG cells, 5-10-5 motif oligonucleotides targeting SEQ ID NO: 1 and 10) was 93%, the “percent inhibition of PKK at 0.19 μM” value (human PKK mRNA [2]; [7]) was 23% and the “percent inhibition of PKK at 0.56 μM” value (human PKK mRNA [2]; [7]) was 54%. The “percent inhibition of PKK at 1.67 μM” value (human PKK mRNA [2]; [7]) was 78%, the “percent inhibition of PKK at 5.00 μM” value (human PKK mRNA [2]; [7]) was 91% and the IC50 (human PKK mRNA [2]; [8]) was 0.6 µM. For the same substance, the “percent inhibition of PKK mRNA, 0.19 μM” value (human PKK mRNA [2]) was 25%, the “percent inhibition of PKK mRNA, 0.56 μM” value (human PKK mRNA [2]) was 9% and the “percent inhibition of PKK mRNA, 1.67 μM” value (human PKK mRNA [2]) was 73%. For the same substance, the “percent inhibition of PKK mRNA, 5.00 μM” value (human PKK mRNA [2]) was 92% and the IC50 (human PKK mRNA [2]; 0.19-5.00 μM) was 1.4 µM.

With “546753 (e[5mC]*eT*eG*eG*e[5mC]*dT*d[5mC]*dA*d[5mC]*dT*dA*dT*dA*dG*dG*e[5mC]*e[5mC]*e[5mC]*e[5mC]*eA; antisense) [compound 546753]” the “% inhibition” value (human PKK mRNA [1]; [9]) was 91%, the “percent inhibition of PKK at 0.19 μM” value (human PKK mRNA [2]; [3]) was 28% and the “percent inhibition of PKK at 0.56 μM” value (human PKK mRNA [2]; [3]) was 47%. The “percent inhibition of PKK at 1.67 μM” value (human PKK mRNA [2]; [3]) was 83%, the “percent inhibition of PKK at 5.00 μM” value (human PKK mRNA [2]; [3]) was 96% and the IC50 (human PKK mRNA [2]; [4]) was 0.5 µM. The “percent inhibition of PKK mRNA, 0.19 μM” value (human PKK mRNA [2]) was 17%, the “percent inhibition of PKK mRNA, 0.56 μM” value (human PKK mRNA [2]) was 31% and the “percent inhibition of PKK mRNA, 1.67 μM” value (human PKK mRNA [2]) was 70%. The “percent inhibition of PKK mRNA, 5.00 μM” value (human PKK mRNA [2]) was 91% and the IC50 (human PKK mRNA [2]; 0.19-5.00 μM) was 0.9 µM.

“547602 (antisense eT*e[5mC]*eA*e[5mC]*eT*dG*dT*dA*d[5mC]*d[5mC]*dT*dA*dT*dA*dA*e[5mC]*eT*e[5mC]*eT*eA) [compound 547602]” was tested, and the “% inhibition” value (human PKK mRNA [1]; human PKK mRNA in HepaRG cells, 5-10-5 gapmers, Table 14) was 93%, the “percent inhibition of PKK at 0.19 μM” value (human PKK mRNA [2]; [7]) was 18% and the “percent inhibition of PKK at 0.56 μM” value (human PKK mRNA [2]; [7]) was 53%. The “percent inhibition of PKK at 1.67 μM” value (human PKK mRNA [2]; [7]) was 92%, the “percent inhibition of PKK at 5.00 μM” value (human PKK mRNA [2]; [7]) was 87% and the “percent inhibition of PKK at 5.00 μM” value (human PKK mRNA [2]; electroporation, approximately 16 hours, Table 41) was 93%. The “percent inhibition of PKK at 0.19 0μM” value (human PKK mRNA [2]; 0.19 0μM, electroporation, approximately 16 hours, Table 41) was 1%, the “percent inhibition of PKK at 0.56 0μM” value (human PKK mRNA [2]; 0.56 0μM, electroporation, approximately 16 hours, Table 41) was 9% and the “percent inhibition of PKK at 1.67 1μM” value (human PKK mRNA [2]; 1.67 1μM, electroporation, approximately 16 hours, Table 41) was 52%. The IC50 (human PKK mRNA [2]; [8]) was 0.5 µM and the IC50 (human PKK mRNA [2]; 4 point dose response, Table 41) was 1.4 µM.

With “546826 (eA*eG*eT*eA*eT*d[5mC]*dA*d[5mC]*dT*dG*dT*dA*d[5mC]*dT*dA*eG*eT*eT*eT*e[5mC]; antisense) [compound 546826]” the “% inhibition” value (human PKK mRNA [1]; [9]) was 90%, the “percent inhibition of PKK at 0.19 μM” value (human PKK mRNA [2]; [3]) was 17% and the “percent inhibition of PKK at 0.56 μM” value (human PKK mRNA [2]; [3]) was 40%. For the same substance, the “percent inhibition of PKK at 1.67 μM” value (human PKK mRNA [2]; [3]) was 87%, the “percent inhibition of PKK at 5.00 μM” value (human PKK mRNA [2]; [3]) was 97% and the IC50 (human PKK mRNA [2]; [4]) was 0.7 µM.

From US11840686B2, “Modulation of prekallikrein (PKK) expression” (Ionis Pharmaceuticals, Inc., priority 2013, dated 2023)
